The structures appear in SMILES notation. A value given as a limit tells only on which side of the number the result lay.

`C[C@@H]([C@@H](O)c1ccc(O)cc1)N1CCC(O)(c2ccccc2)CC1` (relative stereo) came in with a melting point of 202 to 204 °C.
Turning to `COc1ccc(N2CCN(Cc3ccc([N+](=O)[O-])cc3)CC2)cc1`, the melting point lay in the range of 130 to 132 °C.
As for `CCNc1ccc(-c2cc3ccccc3o2)cc1`, the melting point was 126 to 128 °C.
Next, `CCNC(=O)Nc1cccc(Oc2nnc([C@@H](C)NS(=O)(=O)c3ccc(Cl)c(Cl)c3)n2CC)c1`: 118 to 120 °C.
For the compound `COc1ccc(NC(=O)Nc2c(C)cc(Oc3ccc4nc(COc5ccc(CC6SC(=O)NC6=O)cc5)n(C)c4c3)cc2C)cc1` (centres undefined), the melting point was 229 to 231 °C.
Regarding `Nc1ncc(-c2nc(N3CCOCC3)c3sc(NS(=O)(=O)c4cccc(C=CC(=O)NO)c4)cc3n2)cn1`, the melting point was > 300 °C.
As for `CC(C)CC(=O)OC1(C(=O)CO)CCC2C3CC(C)C4=CC(=O)C=CC4(C)C3C(O)CC21C` (centres undefined), the melting point is 164 °C.
Take `Nc1nc2c(sc(=O)n2Cc2ccccc2)c(=O)[nH]1`: the melting point is > 320 °C.
Next, `O=C(O)/C=C/C(=O)/C=C/c1ccc(F)cc1`: 160 to 162 °C; `Clc1ccc2c(Cl)nc(-c3ccc(Br)cc3)nc2c1`: 189 to 190 °C; `Cc1cc(O)c2c(c1)CCC2`: 82 to 83 °C.
The compound `CCn1c(=O)n(C2CCN(CCCCN3C(=O)c4ccccc4S3(=O)=O)CC2)c2ccccc21` yielded a melting point of 124 to 125 °C.
Take `COc1ccc2sc(C(=O)Oc3ccccc3)c(Oc3ccccc3)c2c1`: the melting point is 198 °C.
In turn, `CCCNC(=O)C1(CCCCSc2ccccc2)c2ccccc2-c2ccccc21` gave a melting point of 50 to 53 °C.
In the case of `Cc1cccc(Nc2cc(Nc3cccc(C)c3)ncn2)c1` it was 242 to 244 °C.
The compound `CC(=O)N1CCc2cc(S(=O)(=O)n3c(CCC(=O)O)cc4nc(Cl)ccc43)ccc21` gave a melting point of 216 °C.
Next, `Cn1cc(N2C=CN=CC2)ccc1=O`: 166 °C.
In turn, `Cc1cccc(C)c1C(=O)n1cc(F)c(N=CN(C)C)nc1=O` had a melting point of 120 to 150 °C.
In turn, `COCCNC(=O)C1=C(C(=O)Nc2cc(OC3CCCC3)c(Cl)cc2F)CCCC1` gave a melting point of 151 °C.
Next, `CCCCS(=O)(=O)Nc1ccc(Oc2ccc3cccnc3c2)cc1`: 168 °C; `COC(=O)C(C(=O)OC)C(Cc1cc(C(F)(F)F)ccc1[N+](=O)[O-])c1ccc(OC)cc1` (centres undefined): 110 to 112 °C.
Compound `CCOC(=O)CSc1c(C(=O)OCC)[nH]c2cc(Cl)cc(Cl)c12` showed a melting point of 152 to 153 °C.
In the case of `CCC12CCC(c3ccc(Cl)cc3)(OC1)OC2` it was 78 °C; in that of `CN(C)c1ccc(-c2cc(-c3ccccc3)nc(-c3ccccc3)c2)cc1`, 128 to 129 °C.
The compound `CC1(C)CC(SCc2c(C(F)(F)F)nn(-c3ccccc3)c2Cl)=NO1` returned a melting point of 89 to 90 °C.
The compound `CCOC(=O)c1ccc(CCN2CCN(C(=O)CCc3cc(C(C)(C)C)c(O)c(C(C)(C)C)c3)CC2)cc1` returned a melting point of 105 to 107 °C.
`CC(=O)C1(O)CCC2C3C=C(C)C4=CC(=O)CCC4(CO)C3CCC21C` (centres undefined) returned a melting point of 184 to 186 °C.
Next, `CC(C)(O)Cn1c(CO)nc2c(N)nc3cc(-c4cccc(C(=O)N5CCOCC5)c4)cnc3c21`: 153 to 155 °C; `CCC(CC)CNC(=O)c1ccc2cccc(Cc3ccc(C(=O)NS(=O)(=O)c4ccccc4)cc3OC)c2c1`: 210 to 211 °C.
In the case of `Cc1c(OCCCl)cccc1[N+](=O)[O-]` it was 58 to 59 °C; in that of `O=C(NCCCCCCCNC(=O)c1ccc(OC(F)F)cc1)c1ccc(OC(F)F)cc1`, 138 to 139 °C; in that of `CC(=S)NC[C@H]1CN(c2ccc(N3CCC4(CC3)OCCO4)c(F)c2)C(=O)O1`, 141 to 143 °C.
In the case of `CCn1c(-c2ccnc3ccccc23)nc(-c2ccncc2)c1-c1ccc(Cl)cc1` it was 167 to 169 °C; in that of `CCn1cc(C(=O)Nc2ccc(C(C)C)cc2)cn1`, 141 °C; in that of `CCOP(=O)(OCC)C(c1ccccc1)N(CCCl)C(N)=O` (centres undefined), 82 °C.
`O=C(Nc1ccccc1S(=O)(=O)NCC1CCCCC1)N[C@@H](Cc1ccc(NC(=O)c2c(Cl)cccc2Cl)cc1)C(=O)O`: the melting point was determined as 185 °C.
`CC(=O)c1c(N(C)C)nn2ccccc12` displayed a melting point of 59.5 to 60 °C.
In the case of `CCCCOc1ncc(C(C)=O)cc1-c1nc2c(CC)n(C3CCN(C(=O)OC(C)(C)C)CC3)nc2c(=O)[nH]1` it was 194 to 195 °C; in that of `CC(=O)N1CCc2c(sc(C)c2CCCCN2CCC(c3noc4cc(F)ccc34)CC2)C1`, 158 to 160 °C; in that of `c1ccc(-c2nn3ccccc3c2-c2ccncc2)cc1`, 166 to 167 °C.
In turn, `COc1cc(C)c(CCCCCCCCCC(=O)CCCCCCCCCCCC(=O)O)c(O)c1OC` showed a melting point of 63 to 64 °C.
The compound `COC(=O)CC[C@H](NC(=O)c1ccc(OCc2ccccc2)cc1)C(=O)OC` yielded a melting point of 108 to 109 °C.
On to `OCC1OC(n2cnc3c(Nn4ccc5ccccc54)ncnc32)C(O)C1O` (centres undefined), for which the melting point was determined as 155 °C.
As for `C[C@H]([C@](O)(Cn1cncn1)c1ccc(F)cc1F)S(=O)(=O)N1CCCC1`, the melting point was 149 to 150 °C.
In the case of `O=C(c1ccc(Cl)cc1Cl)C1(c2cccnc2)CC1` it was 83 °C; in that of `C=C1C=C(Oc2cc(C(=O)O)ccc2OC)C1(F)F`, 163 to 165 °C.
The compound `CC(=O)OC1CSC(Oc2cncc(-c3ccc(F)cc3Cl)c2)C(OC(C)=O)C1OC(C)=O` (centres undefined) gave a melting point of 115 °C.
Next, `COc1ccc(NCCCCCNC(C)=O)c2c1C(=O)c1ccccc1C2=O`: 145 to 147 °C.
On to `CC(=O)NCOc1ccc(S(=O)(=O)N2C3CCC2CN(CC(=O)Nc2ccccc2C)C3)cc1`, for which the melting point was 205 to 206 °C.
`Clc1ccc2c(c1)CCc1cccnc1C2=C1CCN(Cc2cccnc2Cl)CC1` showed a melting point of 56.6 to 60.2 °C.
For `Cc1cc(C)c(CON)c(C)c1`, the melting point fell in the range of 54 to 55 °C.
In the case of `COc1cc(C)nc(NC(=O)NS(=O)(=O)c2cccc3c2OCCO3)n1` it was 203 to 205 °C.
`CN(C)C=NC(=O)c1c(N2CCN(Cc3ccccc3)CC2)nn2c(-c3cccc(C(F)(F)F)c3)ccnc12` displayed a melting point of 140 to 142 °C.
In the case of `CC(C)NC1=NS(=O)(=O)c2cc(Cl)cc([N+](=O)[O-])c2N1` it was 266 to 267 °C; in that of `CCOC(=O)CCC(=O)c1ccc(-c2ccccc2)cc1`, 100 to 101 °C.
As for `CC(=O)OCCSCCOc1ccc(CCC(=O)O)cc1`, the melting point was in the range of 48 to 49 °C.
`CC(=O)N(C)c1c(C(=O)c2ccccc2)[nH]c2cc(Cl)ccc12` came in with a melting point of 232 to 235 °C.
In the case of `C=CCNC(=S)N1CCc2[nH]cnc2C1CC` (centres undefined) it was 205 °C; in that of `N#CCCCCn1cnc(NC(N)=NCC(F)(F)F)n1`, 200 to 201 °C.
Next, `Cc1c(Cl)c([N+](=O)[O-])cc([N+](=O)[O-])c1Cl`: 131 to 132 °C.
As to `COC(=O)[C@@H]1C[C@@H](O)CN1S(=O)(=O)c1ccc(Cl)c(COc2cccc3c(C)cc(C)nc23)c1Cl`, the melting point was found to be 100 °C.
In turn, `CCCc1nn(C)c2c(=O)[nH]c(-c3cc(C(=O)CN4CCCCC4)ccc3OCC)nc12` registered a melting point of 149 to 151 °C.
The compound `CCCCCCc1ncc(/C=C(\Cc2cccs2)C(=O)O)n1Cc1ccc(C(=O)O)cc1` gave a melting point of 210 to 212 °C.
Next, `CC(C)(NC(=O)CCc1nccn1Cc1ccccc1)c1ccc(Cl)cc1`: 128 to 129 °C; `C=C[C@H](O)[C@H](Cc1ccccc1)NC(=O)OC(C)(C)C`: 98 to 100 °C; `CCCCCS(=O)(=O)NC(=O)/C=C/c1cc(OCCCC)nn1Cc1ccc(C(F)(F)F)cc1`: 159 to 160 °C.
As for `COc1ccc(C(OCC2(COS(=O)(=O)c3ccc(C)cc3)OC(n3ccc(=O)[nH]c3=O)C(O)C2O)(c2ccccc2)c2ccc(OC)cc2)cc1` (centres undefined), the melting point lay within 104 to 105 °C.
In the case of `COCOCc1cccc(-c2ccc(C(=O)O)cc2)c1` it was 126 to 127 °C.
In the case of `COc1nc(Cl)nc(NC(=O)NS(=O)(=O)c2ccccc2OC(F)F)n1` it was 167 to 168 °C.
Next, `COc1ccc(CCNC(C)(C)CO)cc1`: 114 to 115 °C; `Nc1c(-c2cccc(Oc3ccccc3)c2)cnc2ncnn12`: 248 to 250 °C.
With `CCOC(=O)C1=C(C)NC(C)=C(C(=O)OC)C1c1cccc2ccccc12` (centres undefined), the melting point is 196 to 197 °C.
`CCSc1nc2c(N)nc(-c3ccncc3)nc2[nH]1` had a melting point of 168 to 170 °C.
Next, `CC(=O)Nc1ccc(N2CCN(c3ccc(OCC(O)(Cn4cncn4)c4ccc(Cl)cc4Cl)cc3)CC2)cc1` (centres undefined): 169 to 171 °C.
Next, `CN(C#N)C1CN(C(=O)Nc2ccc(C(F)(F)F)cc2)N=C1c1ccc(Cl)cc1` (centres undefined): 216 to 217 °C.
In the case of `COc1ccc(C2CC(C(C)(C)C)=NN2c2ccc(C(=O)O)cc2)c(OC)c1` (centres undefined) it was 214 °C.
`N#Cc1ccc(CN2C(=O)C3(COc4cc5c(cc43)OCO5)c3ccccc32)o1` (centres undefined) showed a melting point of 167 to 169 °C.
As for `Cc1c(C)n(CC=C(Cl)Cl)c2c(OCc3ccccc3)nncc12`, the melting point was in the range of 149 to 151 °C.
In the case of `Cc1nc2c(cc1Br)c(=O)c(C(=O)NCc1ccc(Cl)cc1)cn2C` it was 266 to 268 °C; in that of `COc1ccc(CCCCNC(=O)CCl)cc1`, 99 to 100 °C.
Next, `CC(C)(C)OC(=O)NC1CCCOCC=CC2CC2(C(=O)NS(=O)(=O)C2CC2)NC(=O)C2CC(OCc3ccccc3)CN2C1=O` (centres undefined): 147 to 149 °C; `CC(C)(C)OC(=O)[C@@H]1CS[C@H](c2cccc(O)c2)N1C(=O)CNC(=O)Nc1cccc(C(=O)O)c1`: 150 °C.
For `Cc1ccc(-c2nc(Cc3cc4cc(CCl)ccc4o3)c(C)o2)cc1`, the melting point lay in the range of 145 to 146 °C.
The compound `CCCCCc1c(C(=O)NN2CC=CCC2)nn(-c2ccc(Cl)cc2Cl)c1-c1ccc(Cl)cc1` had a melting point of 150 °C.

These data come from a melting point compilation (Tetko et al.; mined from patent text by program, amines drawn as free bases though some values may be those of a salt).
